According to PubChem BioAssay AID1224921 (Broad Institute, 2016):
Activity calls are given as the source filed them. The rule behind the calls is not given here.

tested on: Clostridioides difficile clinical isolate growth, OD600, 24 h; assay: C. difficile growth inhibition, confirmation, 4-point retest (AID 1224921)

Compound | AC50
C[C@@H]1CN([C@H](C)CO)C(=O)c2cc(NC(=O)Nc3ccc(C(F)(F)F)cc3)ccc2O[C@@H](C)CCCCO[C@@H]1CN(C)CC1CCCCC1 | 14.6 µM
O=C(C[C@H]1CC[C@H]2[C@@H](COC[C@@H](O)CN2C(=O)Nc2ccc(Cl)c(Cl)c2)O1)NCc1ccccc1 | 3.72 µM
O=C(NCC[C@H]1CC[C@H](NC(=O)c2cccnc2)[C@@H](CO)O1)Nc1ccc(C(F)(F)F)cc1 | 1.79 µM
C[C@@H](NC(=O)C[C@@H]1CC[C@@H]2[C@H](COC[C@H](O)CN2C(=O)Nc2cc(Cl)cc(Cl)c2)O1)c1ccccc1 | 9.64 µM
O=C(N[C@H]1CC[C@H](CCNS(=O)(=O)c2ccc(Cl)cc2)O[C@H]1CO)c1ccccn1 | > 60 µM (inactive)
CCC(=O)N[C@@H]1CC[C@H](CCNC(=O)Nc2ccc(C(F)(F)F)cc2)O[C@@H]1CO | 4.29 µM
CO[C@@H]1CN(C)C(=O)c2cc(NC(=O)Nc3ccc(Cl)c(Cl)c3)ccc2OC[C@H](C)NC[C@@H]1C | 8.13 µM
C[C@@H]1CCCCO[C@@H](CN(C)Cc2ccccc2)[C@H](C)CN([C@@H](C)CO)C(=O)c2cc(NC(=O)Nc3ccc(F)cc3)ccc2O1 | > 16 µM (inactive)
C[C@@H]1CN([C@@H](C)CO)C(=O)c2cc(NC(=O)Nc3ccc(C(F)(F)F)cc3)ccc2O[C@@H]1CN(C)CC1CCCCC1 | 9.84 µM
C[C@@H]1CCCCO[C@@H](CN(C)Cc2ccccc2)[C@H](C)CN([C@H](C)CO)C(=O)c2cc(NC(=O)Nc3ccc(C(F)(F)F)cc3)ccc2O1 | 21.9 µM
CO[C@H]1CN(C)C(=O)c2ccc(NC(=O)c3nc4ccccc4s3)cc2OC[C@@H](C)N(Cc2ccncc2)C[C@@H]1C | 30.8 µM
O=C(C[C@@H]1CC[C@H]2[C@@H](COC[C@H](O)CN2C(=O)Nc2cc(Cl)cc(Cl)c2)O1)N1CCOCC1 | 17.6 µM
C[C@H](CO)N1C[C@H](C)[C@H](CN(C)CC2CCCCC2)OCCCC[C@H](C)Oc2ccc(NC(=O)Nc3cccc4ccccc34)cc2C1=O | 29 µM
CO[C@@H]1CN(C)C(=O)c2cc(NC(=O)c3cc(C)on3)ccc2OC[C@H](C)N(C(C)=O)C[C@@H]1C | > 60 µM (inactive)
O=C(C[C@@H]1CC[C@@H]2[C@H](COC[C@H](O)CN2C(=O)Nc2ccc(C(F)(F)F)cc2)O1)NCC1CC1 | 1.14 µM
C[C@@H]1CN([C@H](C)CO)C(=O)c2cc(NS(=O)(=O)c3ccc(Cl)cc3)ccc2O[C@@H](C)CCCCO[C@H]1CN(C)Cc1ccc(C(F)(F)F)cc1 | > 60 µM (inactive)
CO[C@H](CN(C)Cc1cc(F)ccc1F)[C@@H](C)CN(C(=O)Nc1ccc(C(F)(F)F)cc1)[C@H](C)CO | 6.43 µM
CO[C@@H]1CN(C)C(=O)c2cc(NC(=O)Nc3ccc(C(F)(F)F)cc3)ccc2OC[C@H](C)NC[C@H]1C | 17.8 µM
CC(C)CC#Cc1ccc2c(c1)O[C@H](CN(C)Cc1ccc(C(=O)O)cc1)[C@@H](C)CN([C@H](C)CO)S2(=O)=O | 17.9 µM
CNC(=O)C[C@@H]1CC[C@H]2[C@@H](COC[C@H](O)CN2C(=O)Nc2ccc(Cl)c(Cl)c2)O1 | 7.63 µM
O=C(C[C@@H]1CC[C@H]2[C@@H](COC[C@H](O)CN2C(=O)Nc2ccc(Cl)c(Cl)c2)O1)NCc1ccccc1 | 3.53 µM
O=C(C[C@H]1CC[C@H]2[C@@H](COC[C@@H](O)CN2C(=O)Nc2ccc(Cl)c(Cl)c2)O1)NCc1ccc(Cl)cc1 | 1.03 µM
C[C@@H]1CCCCO[C@@H](CN(C)C)[C@H](C)CN([C@H](C)CO)C(=O)c2cc(NC(=O)Nc3ccc(C(F)(F)F)cc3)ccc2O1 | 17.5 µM
O=C(C[C@H]1CC[C@@H]2[C@H](COC[C@H](O)CN2C(=O)Nc2ccc(C(F)(F)F)cc2)O1)NC1Cc2ccccc2C1 | 6.36 µM

Compound | AC50
N#C[C@H]1[C@@H](c2ccc(C#Cc3cccc(F)c3)cc2)[C@H](CO)N1C(=O)C1CCC1 | 26.4 µM
COc1cccc(C#Cc2ccc([C@@H]3[C@@H](C#N)N(C(=O)C4CCC4)[C@H]3CO)cc2)c1 | > 60 µM (inactive)
CCCN(C)C[C@@H]1OCCCC[C@H](C)Oc2ccc(NC(=O)Nc3ccc(C(F)(F)F)cc3)cc2C(=O)N([C@H](C)CO)C[C@@H]1C | 4.61 µM
CO[C@H]1CN(C)C(=O)c2ccc(NC(=O)Nc3ccccc3)cc2OC[C@@H](C)NC[C@@H]1C | > 60 µM (inactive)
CO[C@H]1CN(C)C(=O)c2cc(NC(=O)Nc3ccc(Cl)c(Cl)c3)ccc2OC[C@@H](C)NC[C@@H]1C | 4.39 µM
COc1ccc(CN(C)C[C@@H]2OCCCC[C@H](C)Oc3ccc(NC(=O)Nc4ccc(C(F)(F)F)cc4)cc3C(=O)N([C@H](C)CO)C[C@@H]2C)cc1 | > 60 µM (inactive)
CO[C@H]1CN(C)C(=O)c2cc(NC(=O)Nc3cc(Cl)cc(Cl)c3)ccc2OC[C@H](C)NC[C@H]1C | 11.6 µM
CO[C@H]1CN(C)C(=O)c2cc(NC(=O)Nc3ccc(Cl)c(Cl)c3)ccc2OC[C@H](C)NC[C@@H]1C | 8.68 µM
C[C@@H]1CN([C@@H](C)CO)C(=O)Cc2cc(N(C)C)ccc2O[C@H]1CN(C)Cc1ccc(C(F)(F)F)cc1 | 29.1 µM
O=C(C[C@@H]1CC[C@@H]2[C@H](COC[C@@H](O)CN2C(=O)Nc2ccc(Cl)c(Cl)c2)O1)NCc1ccncc1 | 4.07 µM
C[C@@H]1CN([C@@H](C)CO)C(=O)Cc2cc(NC(=O)Nc3ccc(C(F)(F)F)cc3)ccc2O[C@H]1CN(C)Cc1ccccc1 | 17.9 µM
C[C@@H]1CN([C@H](C)CO)C(=O)c2cc(C#Cc3ccccc3F)cnc2O[C@H]1CN(C)C | 23.3 µM
C[C@@H]1CN([C@H](C)CO)C(=O)c2cc(NC(=O)Nc3cccc4ccccc34)ccc2O[C@@H](C)CCCCO[C@@H]1CN(C)CC1CCCCC1 | > 60 µM (inactive)
C[C@@H]1CN([C@@H](C)CO)C(=O)c2cccc(NC(=O)Nc3ccc(F)cc3)c2O[C@@H]1CN(C)Cc1ccc(-c2ccccc2)cc1 | < 0.5 µM
O=C(C[C@@H]1CC[C@@H]2[C@H](COC[C@H](O)CN2C(=O)Nc2ccc(C(F)(F)F)cc2)O1)NCC1CCCCC1 | 1.09 µM
O=C(C[C@@H]1CC[C@H]2[C@@H](COC[C@@H](O)CN2CC2CCCCC2)O1)NCc1ccc(Cl)cc1 | > 60 µM (inactive)
COC(=O)[C@H]1[C@H](CO)[C@H]2Cn3c(ccc(-c4ccccc4)c3=O)[C@H]2N1CC1CCCCC1 | 16.7 µM
CO[C@H](CN(C)C(=O)C1CC1)[C@H](C)CN(C(=O)Nc1ccc(C(F)(F)F)cc1)[C@@H](C)CO | 14.7 µM
O=C(C[C@H]1CC[C@H]2[C@@H](COC[C@H](O)CN2C(=O)Nc2ccc(C(F)(F)F)cc2)O1)NC1Cc2ccccc2C1 | 1.54 µM
C[C@@H]1CN([C@@H](C)CO)C(=O)c2cccc(NC(=O)Nc3ccccc3)c2O[C@@H]1CN(C)Cc1ccc(C(F)(F)F)cc1 | 8.02 µM
CO[C@H](CN(C)C(=O)C1CC1)[C@H](C)CN(C(=O)Nc1ccc(C(F)(F)F)cc1)[C@H](C)CO | 2.98 µM
O=C(C[C@@H]1CC[C@@H]2[C@H](COC[C@H](O)CN2C(=O)Nc2cc(Cl)cc(Cl)c2)O1)N1CCOCC1 | 6.6 µM
C[C@@H]1CN([C@@H](C)CO)C(=O)c2cc(NC(=O)Nc3ccc(C(F)(F)F)cc3)ccc2O[C@@H](C)CCCCO[C@H]1CN(C)Cc1ccc2c(c1)OCO2 | 23.9 µM
N#C[C@@H]1[C@H](c2ccc(C#Cc3ccc(F)cc3)cc2)[C@@H](CO)N1C(=O)C1CCC1 | > 60 µM (inactive)

Compound | AC50
O=C(C[C@@H]1CC[C@@H]2[C@H](COC[C@@H](O)CN2C(=O)Nc2ccc(C(F)(F)F)cc2)O1)NC1Cc2ccccc2C1 | 2.27 µM
O=C(C[C@H]1CC[C@H]2[C@@H](COC[C@H](O)CN2C(=O)Nc2ccc(C(F)(F)F)cc2)O1)NCCc1ccncc1 | 2.37 µM
O=C(C[C@@H]1CC[C@H]2[C@@H](COC[C@H](O)CN2C(=O)Nc2ccc(Cl)c(Cl)c2)O1)NCc1ccc(F)cc1 | 1.3 µM
C[C@H]1CN([C@@H](C)CO)C(=O)c2cccc(NC(=O)c3ccncc3)c2O[C@@H]1CN(C)Cc1ccc(-c2ccccc2)cc1 | 1.74 µM
C[C@@H]1CCCCO[C@@H](CN(C)CC2CC2)[C@H](C)CN([C@H](C)CO)C(=O)c2cc(NC(=O)Nc3ccc(C(F)(F)F)cc3)ccc2O1 | 15.9 µM
C[C@H](CO)N1C[C@H](C)[C@@H](CN(C)Cc2ccccc2)Oc2ccc(NC(=O)Nc3ccc(C(F)(F)F)cc3)cc2CC1=O | 31.4 µM
CCC(=O)N[C@H]1CC[C@H](CCNC(=O)Nc2ccc(C(F)(F)F)cc2)O[C@H]1CO | 16.5 µM
C[C@@H]1CN([C@@H](C)CO)C(=O)c2cc(NC(=O)Nc3ccc(C(F)(F)F)cc3)ccc2O[C@@H](C)CCCCO[C@H]1CN(C)CC1CCCCC1 | 4.9 µM
Cc1ccc(S(=O)(=O)N2C[C@@H](O)COC[C@H]3O[C@H](CC(=O)NCc4ccc(Cl)c(Cl)c4)CC[C@@H]32)cc1 | > 60 µM (inactive)
C[C@H]1CN([C@@H](C)CO)C(=O)c2cccc(NC(=O)Nc3ccc(C(F)(F)F)cc3)c2O[C@H]1CN(C)C(=O)Nc1ccc(F)cc1 | 23.4 µM
C[C@H]1CN([C@@H](C)CO)C(=O)CCCn2nncc2CO[C@@H]1CN(C)C(=O)Nc1ccc(C(F)(F)F)cc1 | 17.7 µM
CCCN(C)C[C@H]1OCCCC[C@@H](C)Oc2ccc(NC(=O)Nc3ccc(C(F)(F)F)cc3)cc2C(=O)N([C@@H](C)CO)C[C@H]1C | 10.5 µM
C[C@@H]1CN([C@@H](C)CO)C(=O)c2cccc(NC(=O)Nc3ccc(C(F)(F)F)cc3)c2O[C@@H]1CN(C)CC1CCCCC1 | 3.63 µM
CNC(=O)C[C@H]1CC[C@@H]2[C@H](COC[C@H](O)CN2C(=O)Nc2ccc(Cl)c(Cl)c2)O1 | 4.12 µM
C[C@H]1CN([C@@H](C)CO)C(=O)c2ccccc2-c2ccccc2CO[C@H]1CN(C)Cc1ccc(F)cc1 | > 16 µM (inactive)
C[C@H](CO)N1C[C@H](C)[C@H](CN(C)CC2CCCCC2)OCCCC[C@H](C)Oc2ccc(NC(=O)Nc3ccc(C(F)(F)F)cc3)cc2C1=O | 10.9 µM
O=C(C[C@@H]1CC[C@@H]2[C@H](COC[C@@H](O)CN2C(=O)Nc2ccc(C(F)(F)F)cc2)O1)NCCc1ccncc1 | 4.07 µM
O=C(C[C@@H]1CC[C@@H]2[C@H](COC[C@H](O)CN2C(=O)Nc2cc(Cl)cc(Cl)c2)O1)NCC1CC1 | 16.9 µM
O=C(C[C@@H]1CC[C@H]2[C@@H](COC[C@H](O)CN2S(=O)(=O)c2ccccc2)O1)NCC1CCCCC1 | 15.6 µM
CCNC(=O)C[C@H]1CC[C@@H]2[C@H](COC[C@H](O)CN2C(=O)Nc2ccc(Cl)c(Cl)c2)O1 | 3.02 µM
C[C@@H]1CN([C@@H](C)CO)S(=O)(=O)c2ccc(/C=C/c3ccccc3)cc2O[C@H]1CN(C)Cc1ccc(C(=O)O)cc1 | 1.35 µM
O=C(NCC[C@H]1CC[C@H](NC(=O)C2CC2)[C@@H](CO)O1)Nc1ccc(C(F)(F)F)cc1 | 15.6 µM
